{"source": "patent US10947273B2", "about": "“Peptides of use in the preventive and curative treatment of alopecia” (Institut Europeen de Biologie Cellulaire, priority 2015, dated 2021)", "type_in_all_cases": "cell-based, human", "key": {"NGF": {"test_system": "NGF", "assay": "NGF secretion by NHDF (ELISA/BioPlex)", "conditions": "48h", "protocol": "(§1) NHDF, HFDPC, HHFK and NHEM cells were treated with the peptides studied for 48h. At the end of the treatment, cell supernatants were collected and stored at −80° C. until analysis. The factors of interest secreted into the supernatant were assayed by ELISA® (R&D) or BioPlex® (BioRad®).\n(§2) The results are expressed as percent increase in the concentration of the factor present in the supernatant relative to the untreated control. The intensity of the effect varies as a function of the concentration of the peptide studied and of the cell type treated."}, "PDGF [1]": {"test_system": "PDGF", "assay": "PDGF secretion by HFDPC (ELISA/BioPlex)", "conditions": "48h", "protocol": "as §1, §2"}, "VEGF [2]": {"test_system": "VEGF", "assay": "VEGF secretion by NHDF (ELISA/BioPlex)", "conditions": "48h", "protocol": "as §1, §2"}, "HGF [3]": {"test_system": "HGF", "assay": "HGF secretion by NHDF (ELISA/BioPlex)", "conditions": "48h", "protocol": "as §1, §2"}, "SCF [4]": {"test_system": "SCF", "assay": "SCF secretion by NHDF (ELISA/BioPlex)", "conditions": "48h", "protocol": "as §1, §2"}, "KGF": {"test_system": "KGF", "assay": "qPCR (TLDA) KGF gene expression in HFDPC", "set-up": "dose or concentration left out as unconfirmed", "conditions": "peptide, 24 hours, relative to untreated controls", "protocol": "(§3) RNA was extracted and purified from cell pellets using the RNA XS Kit (Macherey-Nagel). RNA quantification was carried out with a NanoDrop device and sample quality was verified on a Bioanalyzer with RNA 6000 Nano chips (Agilent). cDNA was synthesized from 300 ng of RNA using the High-Capacity cDNA Reverse Transcription Kit (LifeTech). Quality-control qPCR assays of the cDNA were carried out in microplates on the reference gene, GAPDH, and the SIRT1 gene.\n(§4) Final qPCR experiments were carried out in a 1 μl volume on microfluidic cards (TaqMan Low Density Arrays, LifeTech) and the ABI 7900HT qPCR device. Amplification reactions were performed in duplicate using 1 to 2 ng of cDNA per qPCR reaction and TaqMan Universal Master Mix II (LifeTech).\n(§5) Ct values were obtained using the RQ Manager software. For analyses of qPCR results, Ct values were limited to 35 cycles and the duplicate assays are averaged. The GeneXPro software was used for the studies of stability and of selection of the best reference genes. Expression variations are calculated by the relative quantification method and are expressed as percent increase in expression of the gene of interest relative to the untreated controls."}, "HGF [5]": {"test_system": "HGF", "assay": "HGF secretion by HFDPC (ELISA/BioPlex)", "conditions": "48h", "protocol": "as §1, §2"}, "HGF [6]": {"test_system": "HGF", "assay": "qPCR (TLDA) HGF gene expression in HFDPC", "set-up": "dose or concentration left out as unconfirmed", "conditions": "peptide, 24 hours, relative to untreated controls", "protocol": "as §3, §4, §5"}, "HGF [7]": {"test_system": "HGF", "assay": "HGF secretion by HHFK (ELISA/BioPlex)", "conditions": "10^−7 M, 48h", "protocol": "as §1, §2"}, "PDGF [8]": {"test_system": "PDGF", "assay": "qPCR (TLDA) PDGF gene expression in HFDPC", "set-up": "dose or concentration left out as unconfirmed", "conditions": "peptide, 24 hours, relative to untreated controls", "protocol": "as §3, §4, §5"}, "SCF [9]": {"test_system": "SCF", "assay": "SCF secretion by HHFK (ELISA/BioPlex)", "conditions": "10^−7 M, 48h", "protocol": "as §1, §2"}, "VEGF [10]": {"test_system": "VEGF", "assay": "VEGF secretion by HFDPC (ELISA/BioPlex)", "conditions": "10^−5 M, 48h", "protocol": "as §1, §2"}, "[11]": {"test_system": "microdissected hairs from scalp surgery specimens", "assay": "Growth of isolated hair ex vivo", "conditions": "ex vivo isolated hair", "protocol": "(§6) This study was carried out on microdissected hairs from scalp surgery specimens from women aged 52 to 71 years. Isolated hairs were kept alive for 11 to 12 days in Williams medium, under conventional cell culture conditions (37° C., 5% CO2). […]\n(§7) To evaluate the effect of (1), (6) or (9) on hair growth, the hairs were photographed and their lengths measured using image analysis software. Thus, the growth of the hairs between D0 and D11/D12 could be calculated and compared with that of the untreated control. At the end of the treatments (D11 or D12), the hairs were collected and frozen or fixed for immunolabeling and histological staining."}, "follicular markers": {"test_system": "follicular markers", "assay": "Follicular markers in isolated hair ex vivo (immunolabeling)", "conditions": "end of treatment D11 or D12, value = marker increased", "protocol": "as §6, §7"}, "VEGF [12]": {"test_system": "VEGF", "assay": "qPCR (TLDA) VEGF gene expression in HFDPC", "conditions": "peptide 10^−5 M (table title), 24 hours, relative to untreated controls", "protocol": "as §3, §4, §5"}, "[13]": {"test_system": "genes whose expression is reduced in subjects characterized by alopecia", "assay": "qPCR (TLDA) overall statement, genes involved in alopecia, HFDPC", "conditions": "summary of Table 1", "protocol": "To study the effect of 9 peptides on these genes, HFDPC were treated for 24 hours with the molecules tested at 10^−7M and 10^−9M concentrations.\nas §3, §4, §5"}}, "note": "The star is where a group is joined. Palmitoyl = CCCCCCCCCCCCCCCC(=O)*; Chol = cholesterol residue"}
{"substance": "Palm-Ala-Arg-Pro-Ala-Ala-NH2 (Palmitoyl-ARPAA-NH2; SMILES CCCCCCCCCCCCCCCC(=O)N[C@@H](C)C(=O)N[C@@H](CCCNC(=N)N)C(=O)N1CCC[C@H]1C(=O)N[C@@H](C)C(=O)N[C@@H](C)C(N)=O) [(4)]", "values": [{"measurement": "NGF secretion, percent increase relative to untreated control", "setting": "NGF; 10^−7 M", "value": "NGF 12%"}, {"measurement": "NGF secretion, percent increase relative to untreated control", "setting": "NGF; 10^−9 M", "value": "NGF 18%"}, {"measurement": "PDGF secretion, percent increase relative to untreated control", "setting": "PDGF [1]; 10^−7 M", "value": "PDGF 8%"}, {"measurement": "VEGF secretion, percent increase relative to untreated control", "setting": "VEGF [2]; 10^−7 M", "value": "VEGF 9%"}, {"measurement": "HGF secretion, percent increase relative to untreated control", "setting": "HGF [3]; 10^−7 M", "value": "HGF 188%"}, {"measurement": "HGF secretion, percent increase relative to untreated control", "setting": "HGF [3]; 10^−9 M", "value": "HGF 95%"}, {"measurement": "SCF secretion, percent increase relative to untreated control", "setting": "SCF [4]; 10^−7 M", "value": "SCF 6%"}, {"measurement": "SCF secretion, percent increase relative to untreated control", "setting": "SCF [4]; 10^−9 M", "value": "SCF 8%"}]}
{"substance": "H-Arg-Pro-Ala-Lys-OH (H-RPAK-OH) [(8)]", "values": [{"measurement": "% stimulation KGF gene expression", "setting": "KGF", "value": 14, "unit": "%"}, {"measurement": "HGF secretion, percent increase relative to untreated control", "setting": "HGF [3]; 10^−5 M", "value": "HGF 8%"}, {"measurement": "HGF secretion, percent increase relative to untreated control", "setting": "HGF [5]; 10^−5 M", "value": "HGF 26%"}, {"measurement": "HGF secretion, percent increase relative to untreated control", "setting": "HGF [5]; 10^−7 M", "value": "HGF 129%"}]}
{"substance": "Chol-Ala-Arg-Pro-Ala-Lys-NH2 (Chol-ARPAK-NH2) [(7)]", "values": [{"measurement": "NGF secretion, percent increase relative to untreated control", "setting": "NGF; 10^−7 M", "value": "NGF 11%"}, {"measurement": "HGF secretion, percent increase relative to untreated control", "setting": "HGF [3]; 10^−7 M", "value": "HGF 104%"}, {"measurement": "SCF secretion, percent increase relative to untreated control", "setting": "SCF [4]; 10^−7 M", "value": "SCF 10%"}, {"measurement": "% stimulation HGF gene expression", "setting": "HGF [6]", "value": 49, "unit": "%"}]}
{"substance": "Palm-Arg-Pro-Ala-Lys-OH (Palmitoyl-RPAK-OH; SMILES CCCCCCCCCCCCCCCC(=O)N[C@@H](CCCNC(=N)N)C(=O)N1CCC[C@H]1C(=O)N[C@@H](C)C(=O)N[C@@H](CCCCN)C(=O)O) [Peptide (9)]", "values": [{"measurement": "PDGF secretion, percent increase relative to untreated control", "setting": "PDGF [1]; 10^−5 M", "value": "PDGF 62%"}, {"measurement": "PDGF secretion, percent increase relative to untreated control", "setting": "PDGF [1]; 10^−7 M", "value": "PDGF 117%"}, {"measurement": "HGF secretion, percent increase relative to untreated control", "setting": "HGF [7]", "value": "HGF 94%"}, {"measurement": "% stimulation PDGF gene expression", "setting": "PDGF [8]", "value": 304, "unit": "%"}, {"measurement": "% stimulation KGF gene expression", "setting": "KGF", "value": 156, "unit": "%"}, {"measurement": "SCF secretion, percent increase relative to untreated control", "setting": "SCF [9]", "value": "SCF 11%"}, {"measurement": "VEGF secretion, percent increase relative to untreated control", "setting": "VEGF [2]; 10^−5 M", "value": "VEGF 24%"}, {"measurement": "VEGF secretion, percent increase relative to untreated control", "setting": "VEGF [10]", "value": "VEGF 10%"}, {"measurement": "Growth at D 11/D 12 Vs Control", "setting": "[11]; 10^−7 M", "value": "No effect"}, {"measurement": "Growth at D 11/D 12 Vs Control", "setting": "[11]; 10^−9 M", "value": "+5%"}, {"measurement": "Follicular markers increased Vs Control", "setting": "follicular markers; 10^−7 M", "value": "CK15"}, {"measurement": "Follicular markers increased Vs Control", "setting": "follicular markers; 10^−9 M", "value": "CK15"}, {"measurement": "% stimulation VEGF gene expression", "setting": "VEGF [12]", "value": 93, "unit": "%"}, {"measurement": "stimulation of genes whose expression is reduced in alopecia (in words)", "setting": "[13]", "value": "stimulate several genes"}, {"measurement": "SCF secretion, percent increase relative to untreated control", "setting": "SCF [4]; 10^−7 M", "value": "SCF 8%"}]}
